According to paper PMC5564600 (Oncotarget, 2017):

What was measured:
Assay in all cases: biochemical
Format in all cases: binding
panel of 442 kinases [1] = molecular target: T1, panel of 442 kinases (Homo sapiens, UniProt P57078); settings: kinase RIPK4; for remaining activity at 1 µM: read-out: RIPK4 (% of control at 1 µM)
T1 construct: purchased Ambit Biosciences (scanMAXX KINOMEscan)
T1 sequence (P57078 1-832): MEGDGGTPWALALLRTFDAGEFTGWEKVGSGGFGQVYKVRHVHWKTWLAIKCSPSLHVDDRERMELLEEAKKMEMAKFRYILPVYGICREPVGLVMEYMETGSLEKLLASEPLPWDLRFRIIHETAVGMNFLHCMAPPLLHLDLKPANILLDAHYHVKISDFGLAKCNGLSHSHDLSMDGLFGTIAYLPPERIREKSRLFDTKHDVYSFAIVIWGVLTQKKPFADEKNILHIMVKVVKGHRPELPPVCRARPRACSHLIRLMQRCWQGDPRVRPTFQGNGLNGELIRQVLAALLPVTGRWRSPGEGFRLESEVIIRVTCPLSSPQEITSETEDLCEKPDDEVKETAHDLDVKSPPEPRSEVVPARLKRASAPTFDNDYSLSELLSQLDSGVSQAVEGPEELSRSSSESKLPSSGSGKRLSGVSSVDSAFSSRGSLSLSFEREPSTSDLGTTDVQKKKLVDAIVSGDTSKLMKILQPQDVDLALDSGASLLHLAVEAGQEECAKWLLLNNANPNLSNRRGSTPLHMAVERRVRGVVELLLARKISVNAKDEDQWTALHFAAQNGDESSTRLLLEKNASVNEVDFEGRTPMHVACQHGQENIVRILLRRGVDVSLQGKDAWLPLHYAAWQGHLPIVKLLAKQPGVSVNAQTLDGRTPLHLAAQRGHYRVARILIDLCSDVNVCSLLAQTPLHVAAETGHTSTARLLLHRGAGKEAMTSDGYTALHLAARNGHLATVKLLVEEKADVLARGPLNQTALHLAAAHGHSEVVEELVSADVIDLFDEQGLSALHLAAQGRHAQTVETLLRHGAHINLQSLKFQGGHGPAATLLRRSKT

panel of 442 kinases [2] = molecular target: T2, panel of 442 kinases (Homo sapiens, UniProt P37173); settings: kinase TGFBR2; for remaining activity at 1 µM: read-out: TGFBR2 (% of control at 1 µM)
T2 construct: purchased Ambit Biosciences (scanMAXX KINOMEscan)
T2 sequence (P37173 23-567): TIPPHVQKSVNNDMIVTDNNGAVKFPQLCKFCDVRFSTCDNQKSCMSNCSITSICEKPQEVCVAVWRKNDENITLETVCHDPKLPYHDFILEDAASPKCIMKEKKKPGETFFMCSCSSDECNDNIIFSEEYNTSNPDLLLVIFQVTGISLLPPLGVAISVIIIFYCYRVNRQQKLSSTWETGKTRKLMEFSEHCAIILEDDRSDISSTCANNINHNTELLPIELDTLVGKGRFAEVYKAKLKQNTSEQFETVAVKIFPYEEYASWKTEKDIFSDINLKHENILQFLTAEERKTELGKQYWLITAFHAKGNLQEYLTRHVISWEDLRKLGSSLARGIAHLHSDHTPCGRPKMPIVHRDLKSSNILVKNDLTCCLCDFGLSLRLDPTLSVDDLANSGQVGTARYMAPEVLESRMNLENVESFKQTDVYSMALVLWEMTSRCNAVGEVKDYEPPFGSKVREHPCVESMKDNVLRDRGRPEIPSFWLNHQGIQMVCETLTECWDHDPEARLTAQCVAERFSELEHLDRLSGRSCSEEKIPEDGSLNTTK

panel of 442 kinases [3] = molecular target: T3, panel of 442 kinases (Homo sapiens, UniProt P07949, M918T); settings: kinase RET(M918T); for remaining activity at 1 µM: read-out: RET(M918T) (% of control at 1 µM)
T3 construct: purchased Ambit Biosciences (scanMAXX KINOMEscan)
T3 sequence (P07949 29-1114 M918T): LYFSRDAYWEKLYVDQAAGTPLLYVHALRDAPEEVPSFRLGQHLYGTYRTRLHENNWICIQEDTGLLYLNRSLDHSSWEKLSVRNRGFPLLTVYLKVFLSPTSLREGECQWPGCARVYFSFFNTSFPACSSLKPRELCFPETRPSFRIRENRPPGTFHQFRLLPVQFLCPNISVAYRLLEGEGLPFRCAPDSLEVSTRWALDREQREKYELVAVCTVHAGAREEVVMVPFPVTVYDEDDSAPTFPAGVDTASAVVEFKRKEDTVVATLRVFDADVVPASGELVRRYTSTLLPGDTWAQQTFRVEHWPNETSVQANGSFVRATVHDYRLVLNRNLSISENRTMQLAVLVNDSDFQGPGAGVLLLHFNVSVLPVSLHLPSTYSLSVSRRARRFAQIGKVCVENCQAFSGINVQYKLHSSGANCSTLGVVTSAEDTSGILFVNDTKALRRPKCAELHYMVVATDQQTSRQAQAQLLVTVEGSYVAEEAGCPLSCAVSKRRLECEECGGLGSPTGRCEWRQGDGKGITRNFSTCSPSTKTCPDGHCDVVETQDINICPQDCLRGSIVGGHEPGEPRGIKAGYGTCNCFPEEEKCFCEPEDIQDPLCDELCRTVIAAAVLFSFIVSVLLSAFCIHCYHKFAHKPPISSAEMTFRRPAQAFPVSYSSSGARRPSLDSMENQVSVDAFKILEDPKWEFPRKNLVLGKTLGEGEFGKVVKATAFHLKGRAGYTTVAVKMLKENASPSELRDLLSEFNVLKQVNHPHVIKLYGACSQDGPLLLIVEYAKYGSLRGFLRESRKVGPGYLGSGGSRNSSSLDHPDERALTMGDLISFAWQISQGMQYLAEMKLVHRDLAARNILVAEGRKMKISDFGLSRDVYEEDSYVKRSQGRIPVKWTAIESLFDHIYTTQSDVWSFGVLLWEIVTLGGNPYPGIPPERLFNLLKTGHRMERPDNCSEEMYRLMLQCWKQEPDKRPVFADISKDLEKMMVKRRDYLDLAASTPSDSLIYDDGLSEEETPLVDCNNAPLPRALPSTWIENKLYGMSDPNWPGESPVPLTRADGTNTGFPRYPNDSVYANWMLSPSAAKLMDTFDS

panel of 442 kinases [4] = molecular target: T4, panel of 442 kinases (Homo sapiens, UniProt O95382); settings: ASK2; for remaining activity at 1 µM: read-out: % of control at 1 µM
T4 construct: purchased Ambit Biosciences (scanMAXX KINOMEscan)
T4 sequence (O95382 1-1288): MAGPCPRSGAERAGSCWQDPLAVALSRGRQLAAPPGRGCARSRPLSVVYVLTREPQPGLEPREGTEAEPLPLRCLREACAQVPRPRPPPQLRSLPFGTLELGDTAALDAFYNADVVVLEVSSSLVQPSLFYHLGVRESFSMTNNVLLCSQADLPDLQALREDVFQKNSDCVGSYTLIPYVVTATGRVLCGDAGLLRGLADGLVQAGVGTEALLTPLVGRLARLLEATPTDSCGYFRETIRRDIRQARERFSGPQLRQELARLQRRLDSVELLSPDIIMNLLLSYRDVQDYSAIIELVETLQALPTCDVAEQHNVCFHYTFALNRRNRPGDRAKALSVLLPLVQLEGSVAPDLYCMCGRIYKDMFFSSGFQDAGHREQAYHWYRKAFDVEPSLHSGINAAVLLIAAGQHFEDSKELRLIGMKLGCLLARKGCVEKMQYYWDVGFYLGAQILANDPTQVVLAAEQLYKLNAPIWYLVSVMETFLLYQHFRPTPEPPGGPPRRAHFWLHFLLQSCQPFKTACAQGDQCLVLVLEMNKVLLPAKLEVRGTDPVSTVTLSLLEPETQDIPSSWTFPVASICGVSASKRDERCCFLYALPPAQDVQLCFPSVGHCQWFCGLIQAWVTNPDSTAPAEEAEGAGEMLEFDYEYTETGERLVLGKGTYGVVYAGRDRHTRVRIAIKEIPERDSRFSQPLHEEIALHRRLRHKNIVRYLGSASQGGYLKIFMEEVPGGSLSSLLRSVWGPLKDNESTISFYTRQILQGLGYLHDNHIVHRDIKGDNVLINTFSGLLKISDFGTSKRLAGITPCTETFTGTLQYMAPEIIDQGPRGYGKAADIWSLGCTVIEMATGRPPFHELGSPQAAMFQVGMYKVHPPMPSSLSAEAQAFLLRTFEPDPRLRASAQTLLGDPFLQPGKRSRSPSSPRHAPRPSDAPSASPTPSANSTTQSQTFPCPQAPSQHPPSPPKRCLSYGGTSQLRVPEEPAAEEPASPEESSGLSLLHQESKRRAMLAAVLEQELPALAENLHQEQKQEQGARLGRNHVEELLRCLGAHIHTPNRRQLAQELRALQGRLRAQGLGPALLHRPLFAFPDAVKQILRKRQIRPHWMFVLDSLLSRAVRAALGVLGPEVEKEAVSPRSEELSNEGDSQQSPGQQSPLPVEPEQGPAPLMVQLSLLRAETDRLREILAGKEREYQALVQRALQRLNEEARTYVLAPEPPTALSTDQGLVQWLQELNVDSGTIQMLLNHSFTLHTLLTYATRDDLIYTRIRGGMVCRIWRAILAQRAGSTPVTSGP

| Compound | remaining activity at 1 µM (panel of 442 kinases [1]) [%] | remaining activity at 10 µM (panel of 442 kinases [1]; 10 µM, read-out: RIPK4 (% of control at 10 µM)) [%] | remaining activity at 1 µM (panel of 442 kinases [2]) [%] | remaining activity at 10 µM (panel of 442 kinases [2]; 10 µM, read-out: TGFBR2 (% of control at 10 µM)) [%] | remaining activity at 1 µM (panel of 442 kinases [3]) [%] | remaining activity at 10 µM (panel of 442 kinases [3]; 10 µM, read-out: RET(M918T) (% of control at 10 µM)) [%] | remaining activity at 1 µM (panel of 442 kinases [4]) [%] | remaining activity at 10 µM (panel of 442 kinases [4]; 10 µM, read-out: % of control at 10 µM) [%] |
| --- | --- | --- | --- | --- | --- | --- | --- | --- |
| Nc1cc(C(F)(F)F)c(-c2cc(N3CCOCC3)nc(N3CCOCC3)n2)cn1 [Buparlisib] | 82 | 88 | 98 | 100 | 100 | 95 | 87 | 100 |
| COc1ncc(-c2ccc3nccc(-c4ccnnc4)c3c2)cc1NS(=O)(=O)c1ccc(F)cc1F [Omipalisib] | 70 |  | 95 |  | 100 |  | 91 |  |
| FC(F)c1nc2ccccc2n1-c1nc(N2CCOCC2)nc(N2CCOCC2)n1 [ZSTK474, 2-(difluoromethyl)-1-[4,6-di(4-morpholinyl)-1,3,5-triazin-2-yl]-1H-benzimidazole] | 77 |  | 100 |  | 89 |  | 97 |  |
| Cn1c(=O)n(-c2ccc(C(C)(C)C#N)cc2)c2c3cc(-c4cnc5ccccc5c4)ccc3ncc21 [Dactolisib, 2-methyl-2-[4-(3-methyl-2-oxo-8-quinolin-3-yl-2,3-dihydroimidazo[4,5-c]quinolin-1-yl)-phenyl] propionitrile] | 57 |  | 100 |  | 100 |  | 90 |  |
